# Test results taken from PMC5290327, “SC83288 is a clinical development candidate for the treatment of severe malaria” (Nature Communications, 2017).
# Values joined by “and” are separate entries in the source; they are usually repeats but may differ in a detail not shown here. Equal values may be shown once. “Also recorded” adds a separate entry of the source. Read-outs that look alike come from different tables or passages of the source.
# Columns and labels:
# [1] = Plasma protein binding, rapid equilibrium dialysis; assay type: in vitro ADME; conditions: 10 μM
# Procedure: The study was carried out by Novamass Ltd (Oulu, Finland). The plasma protein binding of SC83288 was determined in human rat, mouse and cynomolgus plasma, using a method based on rapid equilibrium dialysis and LC/MS/MS analysis. Briefly, plasma from the different species was incubated with a final concentration of SC83288 of 10 μM for 4 h at 37 °C in a rapid equilibrium dialysis device. Proteins were then precipitated by acetonitrile addition containing a phenacetin internal standard. After centrifugation (10,000g) the supernatants were analysed by LC/MS/MS to obtain the protein unbound fraction of the analyte substance.
# in vivo = assay type: in vivo, rat; conditions: for C0: rat, in vivo, iv; for ALB / ALB/GLOB / ALP / ALT / AMY / AST / BUN / BUN/CREA / CA / CK / CRE / EOS / GLOB / GLU / HCT / HGB / K+ / MCH / MCHC / MCV / MPV / NA+ / NA/K / PHOS / PLT / RBC / RDW / TBIL / TP / WBC: 24h
# Procedure: The maximal-tolerated i.v. bolus dose of SC83288 was at 30 mg kg^−1 body weight (extrapolated initial drug plasma concentration C0 of 65,600 ng ml^−1) and 15 mg kg^−1 body weight (C0 of 27,300 ng ml^−1) in rats and mice, respectively. Observed adverse effects included ataxia, respiratory symptoms and sleepiness. However, all treated animals fully recovered within 30 min after drug application. […] Increasing the dose to 45 mg kg^−1 body weight caused apnoea in rats. The no-observed-adverse-effect level and the no-observed-effect level in rats corresponded to a tested i.v. bolus dose of 22.5 mg kg^−1 body weight (C0 of 49,200 ng ml^−1) and 15 mg kg^−1 body weight (C0 of 32,800 ng ml^−1), respectively.
# On the treatment day, all animals were weighed and the dosing volume was calculated for each individual animal according to its actual body weight. All animal were dosed once. Blood samples were taken at different time points and plasma was collected after centrifugation (10,000g, 10 min, 4 °C). Plasma samples were analysed by LC–MS/MS. […] All relevant observations were recorded. The PK studies in cynomolgus monkeys and beagle dogs were performed by the Laboratory of Pharmacology and Toxicology (LPT), Hamburg, and PK and toxicity studies in mice and rats were performed by the 4SC Discovery GmbH, Munich. PK parameters were obtained by a non-compartment analysis, using Kinetica 4.1 (Thermo Scientific).
structure (smiles),measurement,setting,value
"COC(=O)N1CCN(C(=N)c2cccc(NC(=O)Nc3ccc(S(=O)(=O)NCc4ccc(S(N)(=O)=O)cc4)cc3)c2)CC1 [SC83288, methyl 4-(imino(3-(3-(4-(N-(4-sulfamoylbenzyl)sulfamoyl)phenyl)ureido)phenyl)methyl) piperazine-1-carboxylate]",Bound fraction,[1]; cynomolgus plasma,82 ± 2.8% and 82%
same,Bound fraction,[1]; human plasma,78 ± 1.3% and 78%
same,Bound fraction,[1]; mouse plasma,89 ± 2.2% and 89%
same,Bound fraction,[1]; rat plasma,80 ± 0.6%
same,haematological and clinical biochemical parameters,in vivo; 24 h post application,remained within normal range
same,safety margin,in vivo; projected dosing regimen vs i.v. NOAEL in rats,~55 fold
same,C0,"in vivo; rats, 15 mg kg^−1 i.v. bolus (NOEL), read-out: extrapolated C0",32800 ng/mL
same,C0,"in vivo; rats, 22.5 mg kg^−1 i.v. bolus (NOAEL), read-out: extrapolated C0",49200 ng/mL
same,C0,"in vivo; rats, 30 mg kg^−1 i.v. bolus, read-out: extrapolated initial drug plasma concentration C0",65600 ng/mL
same,maximal-tolerated i.v. bolus dose,in vivo; rats,30 mg kg^−1 body weight
same,time to full recovery after drug application,in vivo; rats and mice at maximal-tolerated dose,≤ 30 min
same,adverse effect,"in vivo; rats, 45 mg kg^−1 body weight",apnea; also recorded: apnoea
same,ALB,"in vivo; rats, 15 mg/kg",4.9 g/dL
same,ALB/GLOB,"in vivo; rats, 15 mg/kg",5.5 g/dL
same,ALP,"in vivo; rats, 15 mg/kg",306 U l-1
same,ALT,"in vivo; rats, 15 mg/kg",51 U l-1
same,AMY,"in vivo; rats, 15 mg/kg",909 U l-1
same,AST,"in vivo; rats, 15 mg/kg",70 U l-1
same,BUN,"in vivo; rats, 15 mg/kg",14.7 mg/dL
same,BUN/CREA,"in vivo; rats, 15 mg/kg",66.7 mg/dL
same,CA,"in vivo; rats, 15 mg/kg",11.0 mg/dL
same,CK,"in vivo; rats, 15 mg/kg",176 U l-1
same,CRE,"in vivo; rats, 15 mg/kg",0.2 mg/dL
same,EOS,"in vivo; rats, 15 mg/kg",0.4%
same,GLOB,"in vivo; rats, 15 mg/kg",0.9 g/dL
same,GLU,"in vivo; rats, 15 mg/kg",202 mg/dL
same,HCT,"in vivo; rats, 15 mg/kg",40.9%
same,HGB,"in vivo; rats, 15 mg/kg",14.3 g/dL
same,K+,"in vivo; rats, 15 mg/kg",5.1 mmol/L
same,MCH,"in vivo; rats, 15 mg/kg",20.5 pg
same,MCHC,"in vivo; rats, 15 mg/kg",35.1 g/dL
same,MCV,"in vivo; rats, 15 mg/kg",58 µm3
same,MPV,"in vivo; rats, 15 mg/kg",5.7 µm3
same,NA+,"in vivo; rats, 15 mg/kg",136 mmol/L
same,NA/K,"in vivo; rats, 15 mg/kg",26.7 mmol/L
same,PHOS,"in vivo; rats, 15 mg/kg",9.4 mg/dL
same,PLT,"in vivo; rats, 15 mg/kg",812 103 mm-3
same,RBC,"in vivo; rats, 15 mg/kg",7.00 103 mm-3
same,RDW,"in vivo; rats, 15 mg/kg",13.3%
same,TBIL,"in vivo; rats, 15 mg/kg",0.4 mg/dL
same,TP,"in vivo; rats, 15 mg/kg",5.8 g/dL
same,WBC,"in vivo; rats, 15 mg/kg",16.7 103 mm-3
same,ALB,"in vivo; rats, 22.5 mg/kg",5.0 g/dL
same,ALB/GLOB,"in vivo; rats, 22.5 mg/kg",6.7 g/dL
same,ALP,"in vivo; rats, 22.5 mg/kg",399 U l-1
same,ALT,"in vivo; rats, 22.5 mg/kg",58 U l-1
same,AMY,"in vivo; rats, 22.5 mg/kg",921 U l-1
same,AST,"in vivo; rats, 22.5 mg/kg",79 U l-1
same,BUN,"in vivo; rats, 22.5 mg/kg",17.5 mg/dL
same,BUN/CREA,"in vivo; rats, 22.5 mg/kg",72.5 mg/dL
same,CA,"in vivo; rats, 22.5 mg/kg",11.0 mg/dL
same,CK,"in vivo; rats, 22.5 mg/kg",97 U l-1
same,CRE,"in vivo; rats, 22.5 mg/kg",0.3 mg/dL
same,EOS,"in vivo; rats, 22.5 mg/kg",0.3%
same,GLOB,"in vivo; rats, 22.5 mg/kg",0.8 g/dL
same,GLU,"in vivo; rats, 22.5 mg/kg",160 mg/dL
same,HCT,"in vivo; rats, 22.5 mg/kg",39.6%
same,HGB,"in vivo; rats, 22.5 mg/kg",14.2 g/dL
same,K+,"in vivo; rats, 22.5 mg/kg",5.3 mmol/L
same,MCH,"in vivo; rats, 22.5 mg/kg",21.0 pg
same,MCHC,"in vivo; rats, 22.5 mg/kg",35.9 g/dL
same,MCV,"in vivo; rats, 22.5 mg/kg",59 µm3
same,MPV,"in vivo; rats, 22.5 mg/kg",5.9 µm3
same,NA+,"in vivo; rats, 22.5 mg/kg",135 mmol/L
same,NA/K,"in vivo; rats, 22.5 mg/kg",25.7 mmol/L
same,PHOS,"in vivo; rats, 22.5 mg/kg",9.2 mg/dL
same,PLT,"in vivo; rats, 22.5 mg/kg",847 103 mm-3
same,RBC,"in vivo; rats, 22.5 mg/kg",6.77 103 mm-3
same,RDW,"in vivo; rats, 22.5 mg/kg",13.3%
same,TBIL,"in vivo; rats, 22.5 mg/kg",0.3 mg/dL
same,TP,"in vivo; rats, 22.5 mg/kg",5.7 g/dL
same,WBC,"in vivo; rats, 22.5 mg/kg",14.3 103 mm-3
same,ALB,"in vivo; rats, 30 mg/kg",5.4 g/dL
same,ALB/GLOB,"in vivo; rats, 30 mg/kg",8.9 g/dL
same,ALP,"in vivo; rats, 30 mg/kg",424 U l-1
same,ALT,"in vivo; rats, 30 mg/kg",58 U l-1
same,AMY,"in vivo; rats, 30 mg/kg",962 U l-1
same,AST,"in vivo; rats, 30 mg/kg",85 U l-1
same,BUN,"in vivo; rats, 30 mg/kg",15.7 mg/dL
same,BUN/CREA,"in vivo; rats, 30 mg/kg",78.3 mg/dL
same,CA,"in vivo; rats, 30 mg/kg",11.2 mg/dL
same,CK,"in vivo; rats, 30 mg/kg",91 U l-1
same,CRE,"in vivo; rats, 30 mg/kg",0.2 mg/dL
same,EOS,"in vivo; rats, 30 mg/kg",0.3%
same,GLOB,"in vivo; rats, 30 mg/kg",0.6 g/dL
same,GLU,"in vivo; rats, 30 mg/kg",170 mg/dL
same,HCT,"in vivo; rats, 30 mg/kg",40.1%
same,HGB,"in vivo; rats, 30 mg/kg",14.3 g/dL
same,K+,"in vivo; rats, 30 mg/kg",5.4 mmol/L
same,MCH,"in vivo; rats, 30 mg/kg",20.5 pg
same,MCHC,"in vivo; rats, 30 mg/kg",35.8 g/dL
same,MCV,"in vivo; rats, 30 mg/kg",57 µm3
same,MPV,"in vivo; rats, 30 mg/kg",5.7 µm3
same,NA+,"in vivo; rats, 30 mg/kg",136 mmol/L
same,NA/K,"in vivo; rats, 30 mg/kg",25.2 mmol/L
same,PHOS,"in vivo; rats, 30 mg/kg",9.0 mg/dL
same,PLT,"in vivo; rats, 30 mg/kg",869 103 mm-3
same,RBC,"in vivo; rats, 30 mg/kg",7.00 103 mm-3
same,RDW,"in vivo; rats, 30 mg/kg",13.4%
same,TBIL,"in vivo; rats, 30 mg/kg",0.3 mg/dL
same,TP,"in vivo; rats, 30 mg/kg",6.0 g/dL
same,WBC,"in vivo; rats, 30 mg/kg",11.2 103 mm-3
same,no-observed-adverse-effect level,"in vivo; rats, i.v. bolus",22.5 mg kg^−1 body weight
same,no-observed-effect level,"in vivo; rats, i.v. bolus",15 mg kg^−1 body weight
